According to US20090233796A1, “HERBICIDAL COMPOSITION” (SYNGENTA CROP PROTECTION, INC., priority 2004, published 2009):

Key:
Assay type in all cases: in vivo
[1] = tested on: CYNODON DACTYLON; assay: Compound (A) with glyphosate, weed plots; details: 840 g/ha; 82 DAA; No. 2.1
Text: (§1) The compositions were formulated as an emulsifyable concentrate (EC).
(§2) The results in the table under each application are the percentage of the plants that were killed.

[2] = tested on: DIGITARIA SANGUINALIS; assay: Compound (A) with glyphosate, weed plots; details: 840 g/ha; 52 DAA; No. 2.2
Text: as §1, §2

[3] = tested on: HORDEUM PUSILLUM; assay: Compound (A) with glyphosate, weed plots; details: 840 g/ha; 13 DAA; No. 2.6
Text: as §1, §2

[4] = tested on: ABUTILON THEOPHRASTI; assay: Compound (A) with nicosulfuron, weed plots; details: 35 g/ha; 27 DAA; No. 3.13
Method: (§3) In these tests, various weeds were treated with nicosulfuron alone at a rate equivalent to 35 g per hectare, […] and Compound (A) at rates equivalent to the sum of these. The compositions were formulated as an emulsifyable concentrate (EC).
as §2

[5] = tested on: AMBROSIA TRIFIDA; assay: Compound (A) with nicosulfuron, weed plots; details: 35 g/ha; 28 DAA; No. 3.15
Method: as §3, §2

[6] = tested on: BRACHIARIA PLATYPHYLLA; assay: Compound (A) with nicosulfuron, weed plots; details: 35 g/ha
Method: as §3, §2

[7] = tested on: CYPERUS ESCULENTUS; assay: Compound (A) with nicosulfuron, weed plots; details: 35 g/ha
Method: as §3, §2

[8] = tested on: C[…].; assay: Compound (A) with nicosulfuron, weed plots; details: 35 g/ha; 5 DAA; No. 3.8
Method: as §3, §2

[9] = tested on: DIGITARIA SANGUINALIS; assay: Compound (A) with nicosulfuron, weed plots; details: 35 g/ha
Method: as §3, §2

[10] = tested on: IPOMOEA SP.; assay: Compound (A) with nicosulfuron, weed plots; details: 35 g/ha; 5 DAA; No. 3.10
Method: as §3, §2

[11] = tested on: SESBANIA EXALTATA; assay: Compound (A) with nicosulfuron, weed plots; details: 35 g/ha
Method: as §3, §2

[12] = tested on: SETARIA SP.; assay: Compound (A) with nicosulfuron, weed plots; details: 35 g/ha; 21 DAA; No. 3.4
Method: as §3, §2

[13] = tested on: SETARIA VIRIDIS; assay: Compound (A) with nicosulfuron, weed plots; details: 35 g/ha; 4 DAA; No. 3.11
Method: as §3, §2

[14] = tested on: […]; assay: Compound (A) with nicosulfuron, weed plots; details: 35 g/ha; 58 DAA; No. 3.12
Method: as §3, §2

[15] = tested on: COMMELINA SP.; assay: Compound (A) with nicosulfuron, weed plots; details: 35 g/ha
Text: In these tests, […] and Compound (A) at rates equivalent to the sum of these. The compositions were formulated as an emulsifyable concentrate (EC).
as §2

[16] = tested on: Euphorbia; assay: Compound (A) with primisulfuron, weed plots; details: 45 DAA, Trial 3.20
Text: (§4) In these tests, […] and Compound (A) at rates equivalent to the sum of these. The compositions were formulated as an emulsifiable concentrate (EC).
(§5) The results in the tables under each application are the percentage of the plants that were killed.

[17] = tested on: Ipomoea; assay: Compound (A) with primisulfuron, weed plots; details: 44 DAA, Trial 3.21
Method: In these tests, various weeds were treated with primisulfuron alone at a rate equivalent to 35 g per hectare, […] and Compound (A) at rates equivalent to the sum of these. The compositions were formulated as an emulsifiable concentrate (EC).
as §5

[18] = tested on: Corn; assay: Compound (A) with prosulfuron, weed plots; details: 13 DAA, No. 3.26
Text: as §4, §5

[19] = tested on: Galium; assay: Compound (A) with prosulfuron, weed plots; details: 13 DAA, No. 3.24
Text: as §4, §5

[20] = tested on: Brachiaria; assay: Compound (A) with prosulfuron, weed plots; details: 13 DAA, No. 3.27
Method: (§6) In these tests, various weeds were treated with prosulfinuron alone at a rate equivalent to 35 g per hectare, […] and Compound (A) at rates equivalent to the sum of these. The compositions were formulated as an emulsifiable concentrate (EC).
as §5

[21] = tested on: Euphorbia; assay: Compound (A) with prosulfuron, weed plots; details: 13 DAA, No. 3.28
Method: as §6, §5

[22] = tested on: Rice; assay: Compound (A) with prosulfuron, weed plots; details: 13 DAA, No. 3.29
Method: as §6, §5

[23] = tested on: Veronica; assay: Compound (A) with prosulfuron, weed plots; details: 13 DAA, No. 3.25
Method: as §6, §5

[24] = tested on: Wheat; assay: Compound (A) with prosulfuron, weed plots; details: 13 DAA, No. 3.30
Method: as §6, §5

[25] = tested on: ABUTILON THEOPHRASTI; assay: Compound (A) with S-metolachlor, weed plots; details: 1420 g/ha
Text: […] The compositions were formulated as an emulsifyable concentrate (EC).
as §2

[26] = tested on: AMBROSIA ARTEMISIIFOLIA; assay: Compound (A) with S-metolachlor, weed plots; details: 1420 g/ha
Method: (§7) In these tests, various weeds were treated with S-metolachlor (SMOC) alone at an application rate equivalent to 1420 g per hectare, Compound (A) alone at rates equivalent to 20 g per hectare and […] and with mixtures of S-metolachlor and the Compound (A) at rates equivalent to the sum of these. The compositions were formulated as an emulsifyable concentrate (EC).
as §2

[27] = tested on: AMBROSIA TRIFIDA; assay: Compound (A) with S-metolachlor, weed plots; details: 1420 g/ha
Method: as §7, §2

[28] = tested on: C[…]; assay: Compound (A) with S-metolachlor, weed plots; details: 1420 g/ha
Method: as §7, §2

[29] = tested on: E[…]-GALLI; assay: Compound (A) with S-metolachlor, weed plots; details: 1420 g/ha; 28 DAA; Trial 4.1
Method: as §7, §2

[30] = tested on: IPOMOEA SP.; assay: Compound (A) with S-metolachlor, weed plots; details: 1420 g/ha
Method: as §7, §2

[31] = tested on: POLYGONUM PENSYLVANICUM; assay: Compound (A) with S-metolachlor, weed plots; details: 1420 g/ha; 56 DAA; Trial 4.14
Method: as §7, §2

[32] = tested on: SESBANIA EXALTATA; assay: Compound (A) with S-metolachlor, weed plots; details: 1420 g/ha; 56 DAA; Trial 4.2
Method: as §7, §2

[33] = tested on: XANTHIUM STRUMARIUM; assay: Compound (A) with S-metolachlor, weed plots; details: 1420 g/ha
Method: as §7, §2

[34] = tested on: Cyperus; assay: Compound (A) with sulcotrione, weed plots; details: 14 DAA, Trial 5.1
Method: In these tests, various weeds were treated with sulcotrione alone at an application rate equivalent to 1420 g per hectare, […] and Compound (A) at rates equivalent to the sum of these. The compositions were formulated as an emulsifyable concentrate (EC).
as §2

`O=C(O)CNCP(=O)(O)O` [Glyphosate, glyphosate, reference compound] was tested, and the “percentage of the plants that were killed” value (from here on “percentage”) [1] was 0%, the “percentage” value [2] was 0% and the “percentage” value [3] was 30%.
`COc1cc(OC)nc(NC(=O)NS(=O)(=O)c2ncccc2C(=O)N(C)C)n1` [Nicosulfuron, nicosulfuron, reference compound] was tested, and the “percentage” value [4] was 50%, the “percentage” value [5] was 0% and the “percentage” value ([6]; 24 DAA, No. 3.16) was 35%. For the same molecule, the “percentage” value ([6]; 30 DAA, No. 3.17) was 30%, the “percentage” value ([7]; 7 DAA, No. 3.7) was 0% and the “percentage” value ([7]; 12 DAA, No. 3.9) was 0%. The “percentage” value [8] was 50%, the “percentage” value ([9]; 4 DAA, No. 3.6) was 10% and the “percentage” value ([9]; 5 DAA, No. 3.14) was 0%. The “percentage” value ([9]; 21 DAA, No. 3.5) was 70%, the “percentage” value [10] was 0% and the “percentage” value ([11]; 44 DAA, No. 3.3) was 10%. The “percentage” value ([11]; 45 DAA, No. 3.2) was 0%, the “percentage” value [12] was 70% and the “percentage” value [13] was 20%. For the same molecule, the “percentage” value [14] was 0%, the “percentage” value ([15]; 10 DAA, No. 3.18) was 0% and the “percentage” value ([15]; 17 DAA, No. 3.19) was 0%.
`O=C(Nc1nc(OC(F)F)cc(OC(F)F)n1)NS(=O)(=O)c1ccccc1C(=O)O` [Primisulfuron, primisulfuron, reference compound] was tested, and the “percentage” value ([16]; 7.5 g/ha) was 10%, the “percentage” value ([16]; 15 g/ha) was 30% and the “percentage” value ([16]; 30 g/ha) was 50%. For the same molecule, the “percentage” value ([17]; 7.5 g/ha) was 0%, the “percentage” value ([17]; 15 g/ha) was 20% and the “percentage” value ([17]; 30 g/ha) was 25%.
In the case of `COc1nc(C)nc(NC(=O)NS(=O)(=O)c2ccccc2CCC(F)(F)F)n1` [Prosulfuron, prosulfuron, reference compound], the “percentage” value ([18]; 7.5 g/ha) is reported as 0%, the “percentage” value ([18]; 15 g/ha) is reported as 0% and the “percentage” value ([18]; 30 g/ha) is reported as 0%. The “percentage” value ([19]; 7.5 g/ha) was 30%, the “percentage” value ([19]; 15 g/ha) was 40% and the “percentage” value ([19]; 30 g/ha) was 70%. For the same molecule, the “percentage” value ([20]; 7.5 g/ha) was 0%, the “percentage” value ([20]; 15 g/ha) was 0% and the “percentage” value ([20]; 30 g/ha) was 0%. The “percentage” value ([21]; 7.5 g/ha) was 20%, the “percentage” value ([21]; 15 g/ha) was 20% and the “percentage” value ([21]; 30 g/ha) was 30%. For the same molecule, the “percentage” value ([22]; 7.5 g/ha) was 0%, the “percentage” value ([22]; 15 g/ha) was 0% and the “percentage” value ([22]; 30 g/ha) was 0%. The “percentage” value ([23]; 7.5 g/ha) was 0%, the “percentage” value ([23]; 15 g/ha) was 0% and the “percentage” value ([23]; 30 g/ha) was 15%. The “percentage” value ([24]; 7.5 g/ha) was 0%, the “percentage” value ([24]; 15 g/ha) was 0% and the “percentage” value ([24]; 30 g/ha) was 0%.
In the case of `CCc1cccc(C)c1N(C(=O)CCl)[C@@H](C)COC` [SMOC, S-metolachlor, reference compound], the “percentage” value ([25]; 15 DAA, Trial 4.12) is reported as 65%, the “percentage” value ([25]; 23 DAA, Trial 4.3) is reported as 13% and the “percentage” value ([25]; 38 DAA, Trial 4.4) is reported as 0%. The “percentage” value ([25]; 56 DAA, Trial 4.13) was 0%, the “percentage” value ([26]; 25 DAA, Trial 4.7) was 30% and the “percentage” value ([26]; 49 DAA, Trial 4.8) was 30%. For the same molecule, the “percentage” value ([27]; 8 DAA, Trial 4.16) was 25%, the “percentage” value ([27]; 42 DAA, Trial 4.15) was 25% and the “percentage” value ([28]; 26 DAA, Trial 4.5) was 0%. For the same molecule, the “percentage” value ([28]; 54 DAA, Trial 4.6) was 0%, the “percentage” value ([28]; 56 DAA, Trial 4.11) was 0% and the “percentage” value [29] was 75%. For the same molecule, the “percentage” value ([30]; 25 DAA, Trial 4.9) was 0%, the “percentage” value ([30]; 49 DAA, Trial 4.10) was 0% and the “percentage” value [31] was 0%. The “percentage” value [32] was 20%, the “percentage” value ([33]; 26 DAA, Trial 4.17) was 38% and the “percentage” value ([33]; 42 DAA, Trial 4.18) was 30%.
For `CS(=O)(=O)c1ccc(C(=O)C2C(=O)CCCC2=O)c(Cl)c1` [Sulcotrione, sulcotrione], the “percentage” value ([34]; 50 g/ha) was 25%, the “percentage” value ([34]; 100 g/ha) was 30% and the “percentage” value ([34]; 200 g/ha) was 30%.
